From PubChem BioAssay (NCI)
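1) Cells in 96-well plates. 2) Compound, 48 h, 5 concentrations. 3) Linear interpolation between surrounding doses. 4) Unreached endpoint = highest concentration. GI50 marks 50% less growth. TGI marks complete inhibition of growth.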

What was measured:
Assay in all cases: DTP human tumour cell line panel, 48 h
786-0 renal = system: 786-0 renal
A498 renal = system: A498 renal
A549 NSCLC = system: A549 NSCLC
ACHN renal = system: ACHN renal
BT-549 breast = system: BT-549 breast
CAKI-1 renal = system: CAKI-1 renal
CCRF-CEM leukemia = system: CCRF-CEM leukemia
COLO 205 colon = system: COLO 205 colon
DU-145 prostate = system: DU-145 prostate
EKVX NSCLC = system: EKVX NSCLC
HCC-2998 colon = system: HCC-2998 colon
HCT-116 colon = system: HCT-116 colon
HCT-15 colon = system: HCT-15 colon
HL-60(TB) leukemia = system: HL-60(TB) leukemia
HOP-62 NSCLC = system: HOP-62 NSCLC
HOP-92 NSCLC = system: HOP-92 NSCLC
HS 578T breast = system: HS 578T breast
HT29 colon = system: HT29 colon
IGROV1 ovarian = system: IGROV1 ovarian
K-562 leukemia = system: K-562 leukemia
KM12 colon = system: KM12 colon
LOX IMVI melanoma = system: LOX IMVI melanoma
M14 melanoma = system: M14 melanoma
MALME-3M melanoma = system: MALME-3M melanoma
MCF7 breast = system: MCF7 breast
MDA-MB-231 breast = system: MDA-MB-231 breast
MDA-MB-435 = system: MDA-MB-435
MOLT-4 leukemia = system: MOLT-4 leukemia
NCI-H226 lung = system: NCI-H226 lung
NCI-H23 lung = system: NCI-H23 lung
NCI-H460 lung = system: NCI-H460 lung
NCI-H522 lung = system: NCI-H522 lung
NCI/ADR-RES ovarian = system: NCI/ADR-RES ovarian
OVCAR-3 ovarian = system: OVCAR-3 ovarian
OVCAR-4 ovarian = system: OVCAR-4 ovarian
OVCAR-5 ovarian = system: OVCAR-5 ovarian
OVCAR-8 ovarian = system: OVCAR-8 ovarian
PC-3 prostate = system: PC-3 prostate
RPMI-8226 leukemia = system: RPMI-8226 leukemia
RXF 393 renal = system: RXF 393 renal
SF-268 CNS = system: SF-268 CNS
SF-295 CNS = system: SF-295 CNS
SF-539 CNS = system: SF-539 CNS
SK-MEL-2 melanoma = system: SK-MEL-2 melanoma
SK-MEL-28 melanoma = system: SK-MEL-28 melanoma
SK-MEL-5 melanoma = system: SK-MEL-5 melanoma
SN12C renal = system: SN12C renal
SNB-19 CNS = system: SNB-19 CNS
SNB-75 CNS = system: SNB-75 CNS
SR leukemia = system: SR leukemia
SW-620 colon = system: SW-620 colon
T-47D breast = system: T-47D breast
TK-10 renal = system: TK-10 renal
U251 CNS = system: U251 CNS
UACC-257 melanoma = system: UACC-257 melanoma
UACC-62 melanoma = system: UACC-62 melanoma
UO-31 renal = system: UO-31 renal

`CNCCCNc1nc2ccccc2c2c(=O)c3cc(OC)ccc3sc12` was tested, and the GI50 (786-0 renal) was 1660 nM, the TGI (786-0 renal) was 3170 nM and the GI50 (A498 renal) was 2250 nM. For the same molecule, the TGI (A498 renal) was 8720 nM, the GI50 (A549 NSCLC) was 1840 nM and the TGI (A549 NSCLC) was 3820 nM. For the same molecule, the GI50 (ACHN renal) was 1640 nM, the TGI (ACHN renal) was 3000 nM and the GI50 (BT-549 breast) was 12800 nM. The TGI (BT-549 breast) was 26800 nM, the GI50 (CAKI-1 renal) was 1660 nM and the TGI (CAKI-1 renal) was 3170 nM. For the same molecule, the GI50 (CCRF-CEM leukemia) was 2390 nM, the TGI (CCRF-CEM leukemia) was 6080 nM and the GI50 (COLO 205 colon) was 2060 nM. The TGI (COLO 205 colon) was 4400 nM, the GI50 (DU-145 prostate) was 1780 nM and the TGI (DU-145 prostate) was 3230 nM. For the same molecule, the GI50 (EKVX NSCLC) was 1720 nM, the TGI (EKVX NSCLC) was 3700 nM and the GI50 (HCC-2998 colon) was 1820 nM. The TGI (HCC-2998 colon) was 3490 nM, the GI50 (HCT-116 colon) was 1780 nM and the TGI (HCT-116 colon) was 3520 nM. It also gave a GI50 (HCT-15 colon) of 1520 nM, a TGI (HCT-15 colon) of 2950 nM and a GI50 (HL-60(TB) leukemia) of 1950 nM. It also gave a TGI (HL-60(TB) leukemia) of 4040 nM, a GI50 (HOP-62 NSCLC) of 1760 nM and a TGI (HOP-62 NSCLC) of 3760 nM. The GI50 (HOP-92 NSCLC) was 1350 nM, the TGI (HOP-92 NSCLC) was 5670 nM and the GI50 (HS 578T breast) was 1940 nM. It also gave a TGI (HS 578T breast) of 4770 nM, a GI50 (HT29 colon) of 1720 nM and a TGI (HT29 colon) of 3560 nM. It also gave a GI50 (IGROV1 ovarian) of 1550 nM, a TGI (IGROV1 ovarian) of 3030 nM and a GI50 (K-562 leukemia) of 2000 nM. The TGI (K-562 leukemia) was 5380 nM, the GI50 (KM12 colon) was 1830 nM and the TGI (KM12 colon) was 3520 nM. The GI50 (LOX IMVI melanoma) was 1570 nM, the TGI (LOX IMVI melanoma) was 2930 nM and the GI50 (M14 melanoma) was 1990 nM. The TGI (M14 melanoma) was 3820 nM, the GI50 (MALME-3M melanoma) was 1670 nM and the TGI (MALME-3M melanoma) was 3150 nM. For the same molecule, the GI50 (MCF7 breast) was 1690 nM, the TGI (MCF7 breast) was 3320 nM and the GI50 (MDA-MB-231 breast) was 1520 nM. It also gave a TGI (MDA-MB-231 breast) of 2980 nM, a GI50 (MDA-MB-435) of 1800 nM and a TGI (MDA-MB-435) of 3240 nM. It also gave a GI50 (MOLT-4 leukemia) of 2060 nM, a TGI (MOLT-4 leukemia) of 4410 nM and a GI50 (NCI-H226 lung) of 1800 nM. The TGI (NCI-H226 lung) was 3900 nM, the GI50 (NCI-H23 lung) was 1700 nM and the TGI (NCI-H23 lung) was 3190 nM. The GI50 (NCI-H460 lung) was 1670 nM, the TGI (NCI-H460 lung) was 3130 nM and the GI50 (NCI-H522 lung) was 1840 nM. It also gave a TGI (NCI-H522 lung) of 3880 nM, a GI50 (NCI/ADR-RES ovarian) of 1820 nM and a TGI (NCI/ADR-RES ovarian) of 3640 nM. For the same molecule, the GI50 (OVCAR-3 ovarian) was 1820 nM, the TGI (OVCAR-3 ovarian) was 3430 nM and the GI50 (OVCAR-4 ovarian) was 1960 nM. The TGI (OVCAR-4 ovarian) was 4030 nM, the GI50 (OVCAR-5 ovarian) was 1670 nM and the TGI (OVCAR-5 ovarian) was 3080 nM. The GI50 (OVCAR-8 ovarian) was 2170 nM, the TGI (OVCAR-8 ovarian) was 5340 nM and the GI50 (PC-3 prostate) was 1740 nM. It also gave a TGI (PC-3 prostate) of 3450 nM, a GI50 (RPMI-8226 leukemia) of 2220 nM and a TGI (RPMI-8226 leukemia) of 5160 nM. The GI50 (RXF 393 renal) was 1560 nM, the TGI (RXF 393 renal) was 3070 nM and the GI50 (SF-268 CNS) was 1710 nM. The TGI (SF-268 CNS) was 3420 nM, the GI50 (SF-295 CNS) was 1820 nM and the TGI (SF-295 CNS) was 3340 nM. For the same molecule, the GI50 (SF-539 CNS) was 1700 nM, the TGI (SF-539 CNS) was 3100 nM and the GI50 (SK-MEL-2 melanoma) was 2040 nM. For the same molecule, the TGI (SK-MEL-2 melanoma) was 4440 nM, the GI50 (SK-MEL-28 melanoma) was 1740 nM and the TGI (SK-MEL-28 melanoma) was 3150 nM. It also gave a GI50 (SK-MEL-5 melanoma) of 1720 nM, a TGI (SK-MEL-5 melanoma) of 3130 nM and a GI50 (SN12C renal) of 1670 nM. For the same molecule, the TGI (SN12C renal) was 3280 nM, the GI50 (SNB-19 CNS) was 1680 nM and the TGI (SNB-19 CNS) was 3180 nM. It also gave a GI50 (SNB-75 CNS) of 1690 nM, a TGI (SNB-75 CNS) of 3390 nM and a GI50 (SR leukemia) of 3550 nM. For the same molecule, the TGI (SR leukemia) was > 100000 nM, the GI50 (SW-620 colon) was 1720 nM and the TGI (SW-620 colon) was 3280 nM. The GI50 (T-47D breast) was 2220 nM, the TGI (T-47D breast) was 5610 nM and the GI50 (TK-10 renal) was 1730 nM. For the same molecule, the TGI (TK-10 renal) was 3390 nM, the GI50 (U251 CNS) was 1810 nM and the TGI (U251 CNS) was 3710 nM. For the same molecule, the GI50 (UACC-257 melanoma) was 1990 nM, the TGI (UACC-257 melanoma) was 4150 nM and the GI50 (UACC-62 melanoma) was 1760 nM. It also gave a TGI (UACC-62 melanoma) of 3270 nM, a GI50 (UO-31 renal) of 1420 nM and a TGI (UO-31 renal) of 2750 nM.
